Key:
[1] = molecular target: S-RBD-ACE2 protein complex (Homo sapiens, UniProt Q9BYF1); type: binding, SARS-CoV-2
[2] = molecular target: human ACE2 (Homo sapiens, UniProt Q9BYF1); assay: Surface plasmon resonance assay, human ACE2 chip; type: binding; conditions: SPR, human ACE2 extracellular domain, pH 4.5, 25 °C
[3] = molecular target: SARS-CoV2 S2 ECD (Severe acute respiratory syndrome coronavirus 2, UniProt P0DTC2); assay: biochemical; type: binding, SARS-CoV-2
[4] = molecular target: SARS-CoV-2 S1 + S2 ECD (Severe acute respiratory syndrome coronavirus 2, UniProt P0DTC2); assay: biochemical; type: binding

Chain of human ACE2 (Q9BYF1 18-740): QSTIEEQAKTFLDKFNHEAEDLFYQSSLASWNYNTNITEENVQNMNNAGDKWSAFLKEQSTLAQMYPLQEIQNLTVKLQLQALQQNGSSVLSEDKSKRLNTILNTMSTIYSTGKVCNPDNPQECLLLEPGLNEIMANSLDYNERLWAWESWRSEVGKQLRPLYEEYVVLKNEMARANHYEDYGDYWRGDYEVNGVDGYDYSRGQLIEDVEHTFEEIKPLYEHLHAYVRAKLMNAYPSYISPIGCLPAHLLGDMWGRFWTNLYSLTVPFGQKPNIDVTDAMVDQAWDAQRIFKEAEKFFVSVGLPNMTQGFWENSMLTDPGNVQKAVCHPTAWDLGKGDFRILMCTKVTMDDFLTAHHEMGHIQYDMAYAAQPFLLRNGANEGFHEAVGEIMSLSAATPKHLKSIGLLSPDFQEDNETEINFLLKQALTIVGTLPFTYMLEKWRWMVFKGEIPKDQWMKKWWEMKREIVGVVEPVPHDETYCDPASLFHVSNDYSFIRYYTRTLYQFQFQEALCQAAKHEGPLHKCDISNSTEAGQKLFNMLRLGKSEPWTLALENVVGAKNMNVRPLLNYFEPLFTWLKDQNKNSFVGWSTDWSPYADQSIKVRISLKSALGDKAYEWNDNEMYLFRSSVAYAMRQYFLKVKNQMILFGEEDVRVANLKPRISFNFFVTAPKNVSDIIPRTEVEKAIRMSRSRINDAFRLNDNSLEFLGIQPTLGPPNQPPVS
Chain of S-RBD-ACE2 protein complex (Q9BYF1 18-740, one chain of several): as the sequence (Q9BYF1 18-740) above

Row | Compound | Tm Mean of RBD-ACE2 complex [1] | Kd [2] | further results
1 | [Cl-].[Cl-].[Mg+2] [MgCl2] | 51.6 °C | – | –
2 | CC1(C)[C@@H](O[C@H]2O[C@H](C(=O)O)[C@@H](O)[C@H](O)[C@H]2O[C@@H]2O[C@H](C(=O)O)[C@@H](O)[C@H](O)[C@H]2O)CC[C@]2(C)[C@H]3C(=O)C=C4[C@@H]5C[C@@](C)(C(=O)O)CC[C@]5(C)CC[C@@]4(C)[C@]3(C)CC[C@@H]12 [Glycyrrhizate, glycyrrhizate] | – | 4900 µM | Rmax ([2]; listed as glycyrrhizate): 557.8 RU
3 | CC1=NN(c2ccc(C)c(C)c2)C(=O)/C1=N\Nc1cccc(-c2cccc(C(=O)O)c2)c1O [Eltrombopag] | 49.9 °C | 0.828 µM | Kd ([3]; KD): 2.17 µM; Kd [4]: 2.01 µM; Rmax [2]: 21.95 RU
4 | [Ca+2].[Cl-].[Cl-] [CaCl2] | 51.6 °C | – | –
5 | CC1(C)[C@@H](O[C@H]2O[C@H](C(=O)O)[C@@H](O)[C@H](O)[C@H]2O[C@@H]2O[C@H](C(=O)O)[C@@H](O)[C@H](O)[C@H]2O)CC[C@]2(C)[C@H]3C(=O)C=C4[C@@H]5C[C@@](C)(C(=O)O)CC[C@]5(C)CC[C@@]4(C)[C@]3(C)CC[C@@H]12 [Glycyrrhizin, glycyrrhizin] | – | 1800 µM | Rmax ([2]; listed as glycyrrhizin): 499.4 RU
6 | Glycyrrhizic acid | – | – | Rmax ([3]; pH 5.5): 623.7 RU

Reference: article PMC7290210 (Infection, Genetics and Evolution, 2020)
